In brackets after ≈: the same amount, converted by molar mass.
Assay: aqueous solubility of the starting material
Format: physicochemical
Conditions: aqueous buffer; 25° C., 20 mM phosphate buffer, pH 7; read-out: water solubility (aqueous solubility limit)
Procedure: The enzyme-catalyzed conversion of II to I can be carried out by contacting II with the enzyme catalyst in an aqueous reaction mixture. Compound II, the starting material, which is only moderately water soluble, (ca. 10 mM, 25° C., 20 mM phosphate buffer, pH 7), can be added to an aqueous reaction containing the enzyme catalyst at levels exceeding its aqueous solubility limit. Thus reaction mixtures initially consist of two phases, an aqueous phase containing dissolved II and the enzyme catalyst, and a solid phase containing undissolved II. At complete conversion of II, a single phase containing compound I and the enzyme catalyst remains. The enzyme catalyzed conversion of II to I can be carried out with levels of compound II from about 0.1 g/L to 148 g/L, with a preferred range of about 0.1 g/L to 90 g/L. The enzyme catalyst concentrations used in the present invention depend on the specific activity of the enzyme catalyst and is chosen to obtain the desired rate of reaction.

`N#CCC1(C#N)CCCCC1` [Compound II, 1-cyanocyclohexaneacetonitrile] gave a solubility of roughly 10 mM (≈ 1480 µg/mL).

Reference: patent publication US20050009154A1, “Biocatalytic preparation of 1-cyano-cyclohexaneacetic acid” (Pfizer Inc, priority 2003, published 2005)
